Patent US20020051978A1, “Methods and compositions for the identification, assessment, prevention and therapy of human cancers” (priority 2000, published 2002)
Read-outs that look alike come from different tables or passages of the source.

Assays:
[1] = system: 60 cancer cell lines (NCI 60 cancer cell line series); test: NCI-DTP in vitro cancer screen, sulforhodamine B (SRB) growth inhibition, 48 hour exposure; type: cell-based, human; set-up: key to sensitivity class Ovarian OVCAR-8 CL6005 / sensitivity class Ovarian SK-OV-3 CL6011 / sensitivity class Prostate DU-145 CL11003 / sensitivity class NSCLC NCI-H522 CL1003 / sensitivity class Ovarian IGROV1 CL6010 / sensitivity class Ovarian OVCAR-4 CL6002 / sensitivity class Prostate PC-3(I) CL11001 / sensitivity class Renal A498 CL9013 / sensitivity class Renal SN12C CL9008: sensitivity class: 1 = Low, 2 = Medium, 3 = High
Outline: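 Values come from the NCI-DTP screen database: -log GI50, the concentration giving 50% growth inhibition, derived from SRB cell-mass dose-response curves. Each line seeded at its own density, treated day 1 at five ten-fold-spaced doses in duplicate wells, stained after 48 h.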

[2] = system: 60 cancer cell lines (NCI 60 cancer cell line series); conditions: cited from earlier work

COc1cccc2c1C(=O)c1c(O)c3c(c(O)c1C2=O)C[C@@](O)(C(=O)CO)C[C@@H]3O[C@H]1C[C@H](N)[C@H](O)[C@H](C)O1 [Adriamycin]
3: classification of cell line as Low(1), Medium(2) or High(3) sensitivity to compound ([1]; Leukemia CCRF-CEM(I) (CL7003)) | classification of cell line as Low(1), Medium(2) or High(3) sensitivity to compound ([1]; Leukemia MOLT-4 (CL7006)) | classification of cell line as Low(1), Medium(2) or High(3) sensitivity to compound ([1]; Leukemia SR CL7019) | sensitivity class NSCLC NCI-H460 CL1021 ([1]; cell line NSCLC NCI-H460, CL1021)
5.9: -Log (GI50) ([2]; Colon HCT-15 CL4015)
2: classification of cell line as Low(1), Medium(2) or High(3) sensitivity to compound ([1]; CNS SF-539 CL12016) | classification of cell line as Low(1), Medium(2) or High(3) sensitivity to compound ([1]; CNS SNB-19 (CL12002)) | classification of cell line as Low(1), Medium(2) or High(3) sensitivity to compound ([1]; CNS SNB-75(I) CL12005) | classification of cell line as Low(1), Medium(2) or High(3) sensitivity to compound ([1]; CNS U251(I) CL12009) | classification of cell line as Low(1), Medium(2) or High(3) sensitivity to compound ([1]; Colon COLO-250 CL4010) | classification of cell line as Low(1), Medium(2) or High(3) sensitivity to compound ([1]; Colon HCC-2998 (CL4002)) | classification of cell line as Low(1), Medium(2) or High(3) sensitivity to compound ([1]; Colon HCT-116 (CL4003)) | classification of cell line as Low(1), Medium(2) or High(3) sensitivity to compound ([1]; Colon HT29(I) CL4001) | classification of cell line as Low(1), Medium(2) or High(3) sensitivity to compound ([1]; Colon KM12 (CL4017)) | classification of cell line as Low(1), Medium(2) or High(3) sensitivity to compound ([1]; Colon SW-620 (CL4009)) | classification of cell line as Low(1), Medium(2) or High(3) sensitivity to compound ([1]; Leukemia HL-60(I) (CL7008)) | classification of cell line as Low(1), Medium(2) or High(3) sensitivity to compound ([1]; Leukemia K562(I) CL7005) | classification of cell line as Low(1), Medium(2) or High(3) sensitivity to compound ([1]; Leukemia RPMI-8226(I) (CL7010)) | classification of cell line as Low(1), Medium(2) or High(3) sensitivity to compound ([1]; Melanoma LOX IMVI CL10001) | classification of cell line as Low(1), Medium(2) or High(3) sensitivity to compound ([1]; Melanoma M14 (CL10014)) | classification of cell line as Low(1), Medium(2) or High(3) sensitivity to compound ([1]; Melanoma MALME-3M CL10002) | sensitivity class NSCLC NCI-H23(I) CL1001 ([1]; cell line NSCLC NCI-H23(I), CL1001) | sensitivity class NSCLC NCI-H522 CL1003 ([1]; cell line NSCLC NCI-H522, CL1003) | sensitivity class Ovarian IGROV1 CL6010 ([1]; cell line Ovarian IGROV1, CL6010) | sensitivity class Ovarian OVCAR-3 CL6001 ([1]; cell line Ovarian OVCAR-3, CL6001) | sensitivity class Ovarian OVCAR-8 CL6005 ([1]; cell line Ovarian OVCAR-8, CL6005) | sensitivity class Ovarian SK-OV-3 CL6011 ([1]; cell line Ovarian SK-OV-3, CL6011) | sensitivity class Prostate DU-145 CL11003 ([1]; cell line Prostate DU-145, CL11003) | sensitivity class Prostate PC-3(I) CL11001 ([1]; cell line Prostate PC-3(I), CL11001) | sensitivity class Renal 786-O CL9018 ([1]; cell line Renal 786-O, CL9018) | sensitivity class Renal A498 CL9013 ([1]; cell line Renal A498, CL9013) | sensitivity class Renal ACHN CL9023 ([1]; cell line Renal ACHN, CL9023) | sensitivity class Renal CAKI-1 CL9015 ([1]; cell line Renal CAKI-1, CL9015) | sensitivity class Renal RXF-393 CL9016 ([1]; cell line Renal RXF-393, CL9016) | sensitivity class Renal SN12C CL9008 ([1]; cell line Renal SN12C, CL9008) | sensitivity class Renal TK10 CL9024 ([1]; cell line Renal TK10, CL9024)
6.7: -Log (GI50) ([2]; Breast HS-578T CL5006) | -Log (GI50) ([2]; Colon COLO-250 CL4010) | -Log (GI50) ([2]; Colon HCC-2998 (CL4002)) | -Log (GI50) ([2]; Colon HT29(I) CL4001) | -Log (GI50) ([2]; Renal RXF-393 CL9016)
7.0: -Log (GI50) ([2]; Breast T-47D (CL5014)) | -Log (GI50) ([2]; CNS SF-268 CL12014) | -Log (GI50) ([2]; CNS SF-295 CL12015) | -Log (GI50) ([2]; CNS SNB-75(I) CL12005) | -Log (GI50) ([2]; Leukemia K562(I) CL7005) | -Log (GI50) ([2]; Renal SN12C CL9008)
8.0: -Log (GI50) ([2]; Leukemia MOLT-4 (CL7006))
6.5: -Log (GI50) ([2]; Breast BT-549 (CL5013)) | -Log (GI50) ([2]; Breast MDA-MB-435 (CL5011)) | -Log (GI50) ([2]; Breast MDA-N CL5012) | -Log (GI50) ([2]; Colon KM12 (CL4017)) | -Log (GI50) ([2]; Ovarian SK-OV-3 CL6011)
7.5: -Log (GI50) ([2]; Leukemia CCRF-CEM(I) (CL7003))
7.3: -Log (GI50) ([2]; CNS SNB-19 (CL12002)) | -Log (GI50) ([2]; CNS U251(I) CL12009) | -Log (GI50) ([2]; Leukemia HL-60(I) (CL7008)) | -Log (GI50) ([2]; Leukemia RPMI-8226(I) (CL7010)) | -Log (GI50) ([2]; Melanoma LOX IMVI CL10001) | -Log (GI50) ([2]; Renal 786-O CL9018)
6.1: -Log (GI50) ([2]; Ovarian OVCAR-4 CL6002) | -Log (GI50) ([2]; Renal UO-31 CL9004)
8.2: -Log (GI50) ([2]; NSCLC NCI-H460 CL1021)
6.6: -Log (GI50) ([2]; Melanoma M14 (CL10014)) | -Log (GI50) ([2]; Prostate PC-3(I) CL11001)
1: classification of cell line as Low(1), Medium(2) or High(3) sensitivity to compound ([1]; Colon HCT-15 CL4015) | sensitivity class NSCLC NCI-H332M CL1017 ([1]; cell line NSCLC NCI-H332M, CL1017) | sensitivity class Ovarian OVCAR-4 CL6002 ([1]; cell line Ovarian OVCAR-4, CL6002) | sensitivity class Ovarian OVCAR-5 CL6003 ([1]; cell line Ovarian OVCAR-5, CL6003) | sensitivity class Renal UO-31 CL9004 ([1]; cell line Renal UO-31, CL9004)
6.8: -Log (GI50) ([2]; Ovarian OVCAR-8 CL6005) | -Log (GI50) ([2]; Prostate DU-145 CL11003) | -Log (GI50) ([2]; Renal CAKI-1 CL9015)
6.9: -Log (GI50) ([2]; NSCLC NCI-H23(I) CL1001) | -Log (GI50) ([2]; Ovarian IGROV1 CL6010) | -Log (GI50) ([2]; Renal A498 CL9013)
7.2: -Log (GI50) ([2]; CNS SF-539 CL12016) | -Log (GI50) ([2]; NCSLC NCI-H522 CL1003) | -Log (GI50) ([2]; Renal ACHN CL9023)
4.8: -Log (GI50) ([2]; Breast MCF7/ADRr (CL5002))
7.8: -Log (GI50) ([2]; Breast MCF7(I) (CL5001)) | -Log (GI50) ([2]; Leukemia SR CL7019)
6.3: -Log (GI50) ([2]; NSCLC NCI-H332M CL1017) | -Log (GI50) ([2]; Ovarian OVCAR-3 CL6001) | -Log (GI50) ([2]; Renal TK10 CL9024)
6.2: -Log (GI50) ([2]; Ovarian OVCAR-5 CL6003)
6.4: -Log (GI50) ([2]; Breast MDA-MB-231 CL5005)
7.1: -Log (GI50) ([2]; Colon HCT-116 (CL4003)) | -Log (GI50) ([2]; Colon SW-620 (CL4009)) | -Log (GI50) ([2]; Melanoma MALME-3M CL10002)
